Test results taken from article PMC3914206.

Legend:
Assay type in all cases: binding
Conditions in all cases: Compound Concentration 10 µM
panel of 442 kinases [1] = target: T1, panel of 442 kinases (Homo sapiens, UniProt P46734)
T1 construct: purchased KINOMEscan
T1 sequence (P46734 1-347): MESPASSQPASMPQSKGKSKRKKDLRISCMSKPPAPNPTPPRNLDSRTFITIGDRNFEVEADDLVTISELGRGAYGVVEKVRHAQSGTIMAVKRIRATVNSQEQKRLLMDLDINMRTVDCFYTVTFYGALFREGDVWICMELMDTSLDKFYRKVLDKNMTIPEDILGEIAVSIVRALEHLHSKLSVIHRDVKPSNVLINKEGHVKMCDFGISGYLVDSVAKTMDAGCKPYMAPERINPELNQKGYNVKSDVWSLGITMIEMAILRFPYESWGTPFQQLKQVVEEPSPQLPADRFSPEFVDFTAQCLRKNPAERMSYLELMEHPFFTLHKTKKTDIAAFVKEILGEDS
Source text: (§1) We assessed the selectivity of members of this scaffold using the KINOMEscan methodology across a near comprehensive panel of 442 kinases [[18,27]].

panel of 442 kinases [2] = target: T2, panel of 442 kinases (Homo sapiens, UniProt P49760)
T2 construct: purchased KINOMEscan
Source text: as §1

panel of 442 kinases [3] = target: T3, panel of 442 kinases (Homo sapiens, UniProt P27448)
T3 construct: purchased KINOMEscan
Source text: as §1

T3 sequence (P27448 whole entry): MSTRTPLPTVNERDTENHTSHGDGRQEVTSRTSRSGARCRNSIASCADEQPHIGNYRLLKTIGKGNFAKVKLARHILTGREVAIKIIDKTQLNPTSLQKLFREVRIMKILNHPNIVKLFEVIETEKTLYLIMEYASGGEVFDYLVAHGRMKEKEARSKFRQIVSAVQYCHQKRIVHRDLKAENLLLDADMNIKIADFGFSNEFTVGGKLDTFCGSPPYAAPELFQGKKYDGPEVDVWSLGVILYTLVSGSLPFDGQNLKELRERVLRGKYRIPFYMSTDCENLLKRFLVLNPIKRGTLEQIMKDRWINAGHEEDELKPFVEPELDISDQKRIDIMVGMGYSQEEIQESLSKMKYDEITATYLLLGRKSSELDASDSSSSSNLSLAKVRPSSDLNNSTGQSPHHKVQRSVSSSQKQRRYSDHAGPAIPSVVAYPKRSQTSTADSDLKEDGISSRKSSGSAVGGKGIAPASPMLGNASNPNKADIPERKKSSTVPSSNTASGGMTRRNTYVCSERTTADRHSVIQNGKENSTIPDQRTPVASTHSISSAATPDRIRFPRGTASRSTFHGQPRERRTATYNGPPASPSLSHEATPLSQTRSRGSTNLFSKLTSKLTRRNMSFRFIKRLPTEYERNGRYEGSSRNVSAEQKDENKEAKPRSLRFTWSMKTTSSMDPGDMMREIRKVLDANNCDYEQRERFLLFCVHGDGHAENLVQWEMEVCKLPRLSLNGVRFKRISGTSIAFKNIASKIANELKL
T2 sequence (P49760 whole entry): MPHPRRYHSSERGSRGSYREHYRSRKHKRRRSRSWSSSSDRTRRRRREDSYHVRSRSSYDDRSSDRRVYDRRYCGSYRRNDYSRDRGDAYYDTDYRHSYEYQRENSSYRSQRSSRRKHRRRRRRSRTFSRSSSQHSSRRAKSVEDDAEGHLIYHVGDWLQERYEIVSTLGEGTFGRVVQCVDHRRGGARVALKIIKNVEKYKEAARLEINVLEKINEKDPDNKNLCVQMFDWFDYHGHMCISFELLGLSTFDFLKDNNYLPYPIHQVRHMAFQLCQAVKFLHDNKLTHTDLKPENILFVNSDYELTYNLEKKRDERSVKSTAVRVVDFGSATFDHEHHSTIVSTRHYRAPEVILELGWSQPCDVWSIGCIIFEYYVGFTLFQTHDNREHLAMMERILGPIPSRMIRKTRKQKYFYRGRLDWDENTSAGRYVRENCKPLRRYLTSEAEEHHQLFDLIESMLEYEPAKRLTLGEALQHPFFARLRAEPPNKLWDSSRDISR

Structure (SMILES)	KINOMEscan: MEK3 (panel of 442 kinases [1])	KINOMEscan: CLK2 (panel of 442 kinases [2])	KINOMEscan: MARK3 (panel of 442 kinases [3])
COc1cc(C(=O)N2CCC(N3CCN(C)CC3)CC2)ccc1Nc1ncc2c(n1)N1CCc3cccc(c31)C(=O)N2C [Compound 24]	65	25	–
CCOc1cc(C(=O)N2CCC(N3CCN(C)CC3)CC2)ccc1Nc1ncc2c(n1)N(C1CCCC1)c1ccccc1C(=O)N2C [Compound 26]	86	86	100
COc1cc(C(=O)N2CCC(N3CCN(C)CC3)CC2)ccc1Nc1ncc2c(n1)N(C1CCCC1)c1ccccc1C(=O)N2C [Compound 25, 11-cyclopentyl-2-((2-methoxy-4-(4-(4-methylpiperazin-1-yl)piperidine-1-carbonyl)phenyl)amino)-5-methyl-5H-benzo[e]pyrimido[5,4-b][1,4]diazepin-6(11H)-one]	73	79	100
COc1cc(C(=O)N2CCC(N3CCN(C)CC3)CC2)ccc1Nc1ncc2c(n1)N(C)c1ccccc1C(=O)N2C [15 (LRRK2-IN-1)]	75	72	98
